Source: US10272096B2, “Methods and systems of treating wounds” (priority 2013, dated 2019)

Assays:
[1] = test system: A-549 cells; test: Mechanical scratch wound assay in A-549 cell monolayer; type: cell-based
Protocol: (A) Mechanical scratch wounds were generated in a monolayer of A-549 cells, and 30 hours later, the area of the wound was evaluated by custom computer-based software. At 0, 4, 9, and 24 hour post wounding, cells received fresh medium with 5 uM of NO-Cbl, Deta-NONOate, sodium nitroprusside (SNP), or fresh medium alone. (B) The normalized average wound area was determined by dividing the final wound area by the initial wound area and averaging replicates. Data represent the mean+/−SEM of at least 3 separate experiments with an n=12 in each experiment.

[2] = test system: Erk1/2; test: Western blot analysis of phospho-Erk1/2 in U2OS cells; type: cell-based, human
Protocol: Cells were lysed and harvested 10 min after LLLT treatment in Laemmli buffer heated to 100° C. (BioRad, Hercules, Calif.), and lysates were sonicated and resolved on SDS-PAGE gels. The proteins were transferred to a nitrocellulose membrane (GE Healthcare Life Sciences, Pittsburgh) and blocked for 1 h with Pierce Protein-Free Blocking buffer (Thermo Scientific, Rockford, Ill.). They were incubated overnight with antibodies for phospho-ERK1/2(Thr202/Tyr203) at 1:10,000 in TBS/5% BSA (Cell Signaling Technology). Membranes were then incubated with an anti-rabbit-HRP antibody at 1:2000 for 1 h and developed using a luminol-based chemiluminescent substrate.

[3] = test system: lung epithelial cells, primary human lung fibroblasts, cancer cell model; test: In vitro wound healing in several different cell systems; type: cell-based
From the text: . The inventors established this optimal dose range in order to provide a reasonable dose for actual treatment of airway injury. Mechanistically, the inventors determined that improved wound healing was from increased cell migration and not cell proliferation (division). […]

[4] = test system: U2OS cells; type: cell-based, human
Protocol: U2OS human osteosarcoma cells were obtained from the American Type Tissue Culture Collection (ATCC, Rockville, Md.). Cells were grown in T-75 flasks (Corning, Fisher, Pittsburgh, Pa.) in a 37° C., 5% CO2/95% air incubator using Dulbecco's Modified Eagle's Medium (DMEM) and supplemented with 10% fetal bovine serum (Mediatach, Manassas, Va.). Cells were trypsinized with TrypLE (Invitrogen Life Technologies, Carsbad, Calif.), seeded into 6-well or 96-well plates (Corning, Fisher, Pittsburgh, Pa.) and grown to confluence.
Cells were exposed to LLLT for 30 min and 1 h later received a single treatment of 5 μM NO-Cbi.
The scratch wound closure assay has been previously described (see Spitler et al., Nitrosyl-cobinamide (NO-Cbi), a new nitric oxide donor, improves wound healing through cGMP/cGMP-dependent protein kinase, Cell Signal 2013, 25(12):2374-2382). Briefly 600-700 μm wide single line scratches were mechanically generated in a cell monolayer by a 200 μl plastic tip across the length of the well. Cells from both edges of the wound migrated into the open area, which was measured at 24 h. The change in area was quantified using a custom Mat Lab script. The wound closure rate was determined by plotting changes in the wound area as a function of time.

nitrosyl-cobinamide [NO-Cbi]
effectiveness on a molar basis compared with other NO donors [1]: more effective than two other NO donors | wound healing and migration (normalized wound area) [1]: increases wound healing and migration | Erk1/2 activation (phosphorylation) [2]: increased Erk1/2 activation | Erk1/2 activation, combination with LLLT [2]: same degree of Erk1/2 activation as NO-Cbi alone | in vitro wound healing [3]: improved in vitro wound healing | wound healing (normalized wound area at 24 h) [4]: enhance wound healing | wound healing, combination with LLLT [4]: markedly enhanced wound healing compared to either treatment alone
